# Source: US20130287823A1, “PATCH” (priority 2010, published 2013)
# Counter-ions that a name gives are not always drawn. Like-named read-outs stand apart in the source and are kept apart here.
# Assays:
# [1] = Storage stability of midodrine in compounds (60° C., 20 days; discoloration and remaining midodrine by HPLC); type: physicochemical; details: 3 parts midodrine + 100 parts compound, sealed; for STORAGE STABILITY OF MIDODRINE: RATIO OF REMAINING MIDODRINE (% BY WEIGHT): HPLC
# Method: Then the color of the mixture after storage was visually observed. When the color was found unchanged compared with that before the storage, the mixture was evaluated as “excellent.” When discoloration was found, the mixture was evaluated as “bad.”
# The weight W5 (g) of non-decomposed midodrine remaining in the mixture after storage was quantified by HPLC, and the ratio (% by weight) of remaining midodrine to the amount W6 (g) of midodrine added was computed using the following formula (1).
# Ratio(% by weight)of remaining midodrine=100×(W5/W6) (1)
# [2] = Solubility of midodrine at 25° C. in monomers / compounds (saturated solution, HPLC)
# Method: One hundred parts by weight of a monomer shown in TABLE 1 and 3 parts by weight of midodrine were sufficiently mixed to prepare a midodrine solution, and the dissolved state of midodrine in the midodrine solution was visually observed. The midodrine solution was stored at a temperature of 25° C. for 7 days, and then the dissolved state of midodrine was again visually observed. The dissolvability of midodrine was evaluated according to the following criteria.
# A midodrine solution composed of 50 parts by weight of midodrine and 950 parts by weight of a compound shown in TABLE 2 and used as a solvent was prepared. Then the midodrine solution was maintained at 50° C. for 15 minutes and subjected to ultrasonic shaking in a water bath at 25° C. for 10 minutes. The resultant midodrine solution was transferred to a centrifuge tube and left to stand at 25° C. for 2 hours. Then the midodrine solution was centrifuged at a rotation speed of 3,000 rpm using a centrifuge, and the presence or absence of crystals of midodrine on the bottom of the centrifuge tube was observed. When no crystals of midodrine were deposited, the same procedure was repeated with the midodrine-to-compound weight ratio increased up to 200:800 to thereby prepare a saturated midodrine solution.
# A certain amount of the supernatant of the saturated midodrine solution after centrifugation was collected, and the collected supernatant was subjected to HPLC measurement to quantify the weight W7 (g) of midodrine dissolved in the saturated midodrine solution.
# (W8: weight (g) of compound used as solvent in saturated midodrine solution)
# [3] = Dissolvability of midodrine in monomers (visual observation); type: physicochemical; details: 3 parts by weight midodrine in 100 parts by weight of the monomer; observed immediately and after 7 days at 25° C.
# Excerpt: High: No deposition of midodrine was found in any of the midodrine solution immediately after preparation and the midodrine solution after storage for 7 days.
# Middle: Deposition of midodrine was found in the solution immediately after preparation, but no deposition of midodrine was found in the midodrine solution after storage for 7 days.
# Low: Deposition of midodrine was found in the midodrine solution immediately after preparation and also in the midodrine solution after storage for 7 days.
SMILES,STORAGE STABILITY OF MIDODRINE: DISCOLORATION TEST ([1]; colour observed visually),SOLUBILITY OF MIDODRINE [2] [g],also measured
CCCCCCCCCCCC(=O)OCCCCCC [HEXYL LAURATE],EXCELLENT,0.02,–
C=C(C)C(=O)OCC(CC)CCCC (centres unmarked) [2-ETHYLHEXYL METHACRYLATE],–,–,DISSOLVABILITY OF MIDODRINE [3]: LOW
C=C(C)C(=O)OCCCC [BUTYL METHACRYLATE],–,–,"SOLUBILITY OF MIDODRINE ([2]; in the monomer as solvent, 25° C., grams of midodrine per 100 g of solvent): 0.10 g; DISSOLVABILITY OF MIDODRINE [3]: LOW"
CCCCCCCCCCCCO [LAURYL ALCOHOL],BAD,–,–
CC(O)CO (centres unmarked) [PROPYLENE GLYCOL],EXCELLENT,15.67,–
CCCCCCCC/C=C\CCCCCCCCO [OLEYL ALCOHOL],BAD,0.40,–
CCCCCCC(O)CO (centres unmarked) [OCTANEDIOL],BAD,1.78,STORAGE STABILITY OF MIDODRINE: RATIO OF REMAINING MIDODRINE (% BY WEIGHT) [1]: 48.0 % BY WEIGHT
CCCCCCCCCCCCCCCC(=O)OC(C)C [ISOPROPYL PALMITATE],EXCELLENT,–,Value in parentheses after the liquid solubilizing aid (solubility of midodrine in the compound) [2]: ISOPROPYL PALMITATE (0.02)
CCCCCCCCCCCCCC(=O)OC(C)C [ISOPROPYL MYRISTATE],EXCELLENT,–,Value in parentheses after the liquid solubilizing aid (solubility of midodrine in the compound) [2]: ISOPROPYL MYRISTATE (0.02)
C=CC(=O)O [ACRYLIC ACID],–,–,DISSOLVABILITY OF MIDODRINE [3]: HIGH
C=C(C)C(=O)OCCCCCCCCCCCC [DODECYL METHACRYLATE],–,0.02,DISSOLVABILITY OF MIDODRINE [3]: LOW
CC(C)CCCCCCCCCCCCCCC(=O)O [ISOSTEARIC ACID],BAD,–,–
CC(C)CCCC(C)CCCC(C)CCCCC(C)CCCC(C)CCCC(C)C (centres unmarked),EXCELLENT,–,–
NCCO [MONOETHANOLAMINE],BAD,–,–
CC(=O)OCC(COC(C)=O)OC(C)=O [TRIACETIN],EXCELLENT,0.70,–
C=CN1CCCC1=O [1-VINYL-2-PYRROLIDONE],–,>3.0,DISSOLVABILITY OF MIDODRINE [3]: HIGH
CCCCCCCCCCC(CO)CCCCCCCC (centres unmarked) [OCTYLDODECANOL],EXCELLENT,–,STORAGE STABILITY OF MIDODRINE: RATIO OF REMAINING MIDODRINE (% BY WEIGHT) [1]: 100.0 % BY WEIGHT
CC(C)CCCCCCCCCCCCCCCO [ISOSTEARYL ALCOHOL],EXCELLENT,–,–
CCCCCCCCC(CO)CCCCCC (centres unmarked) [HEXYLDECANOL],EXCELLENT,–,STORAGE STABILITY OF MIDODRINE: RATIO OF REMAINING MIDODRINE (% BY WEIGHT) [1]: 90.4 % BY WEIGHT; Value in parentheses after the liquid solubilizing aid (solubility of midodrine in the compound) [2]: HEXYLDECANOL (0.26)
C=CC(=O)OCC [ETHYL ACRYLATE],–,0.25,DISSOLVABILITY OF MIDODRINE [3]: LOW
CCOC(=O)CC(O)(CC(=O)OCC)C(=O)OCC [TRIETHYL CITRATE],EXCELLENT,–,–
OCCCCO [BUTYLENE GLYCOL],–,7.72,STORAGE STABILITY OF MIDODRINE: DIS[…] ([1]; colour observed visually): EXCELLENT
